According to article PMC9268553 (Molecules, 2022):
“And” between values parts separate entries of the source, which are not always exact repeats. Identical values can stand only once. Like-named read-outs stand apart in the source and are kept apart here.

Columns and labels:
human fXa = biological target: T1, human fXa (Homo sapiens, UniProt P00742); assay: biochemical
T1 construct: purchased Chromogenix AB-Instrumentation Laboratories (Milan, Italy)

bovine thrombin = biological target: T2, bovine thrombin (Bos taurus, UniProt P00735); assay: thrombin inhibition, chromogenic substrate S-2238; assay type: biochemical
T2 construct: purchased Sigma-Aldrich (Milan, Italy)

α-chymotrypsin = α-chymotrypsin (Bos taurus, UniProt P00766); assay: α-chymotrypsin inhibition; assay type: biochemical; conditions: read-out: Ki αCHT
AChE (from electric eel) = biological target: T3, AChE (from electric eel) (Electrophorus electricus, UniProt O42275); assay: biochemical; conditions: for inhibition at 50 µM: read-out: inhibition percentage AchE
T3 construct: AChE (from electric eel); from tissue
T3 sequence (O42275 24-633): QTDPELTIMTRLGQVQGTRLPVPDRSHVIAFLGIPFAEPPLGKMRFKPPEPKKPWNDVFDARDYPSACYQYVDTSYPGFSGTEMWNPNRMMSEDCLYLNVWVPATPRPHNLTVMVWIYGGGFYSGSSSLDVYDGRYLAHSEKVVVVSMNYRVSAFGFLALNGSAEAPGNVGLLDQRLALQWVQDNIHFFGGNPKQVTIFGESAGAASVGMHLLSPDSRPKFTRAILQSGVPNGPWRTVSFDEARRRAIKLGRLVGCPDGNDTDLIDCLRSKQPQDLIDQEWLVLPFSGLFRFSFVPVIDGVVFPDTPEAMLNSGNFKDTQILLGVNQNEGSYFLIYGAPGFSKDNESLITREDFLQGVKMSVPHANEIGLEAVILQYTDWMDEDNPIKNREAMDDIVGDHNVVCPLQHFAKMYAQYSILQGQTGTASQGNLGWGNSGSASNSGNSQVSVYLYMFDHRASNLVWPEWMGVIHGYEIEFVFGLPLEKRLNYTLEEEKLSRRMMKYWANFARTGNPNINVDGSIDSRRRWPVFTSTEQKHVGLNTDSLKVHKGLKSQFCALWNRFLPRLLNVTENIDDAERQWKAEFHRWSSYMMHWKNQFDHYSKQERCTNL

BChE (from horse serum) = biological target: T4, BChE (from horse serum) (Equus caballus, UniProt P81908); assay: biochemical; conditions: for inhibition at 50 µM: read-out: inhibition percentage BchE
T4 construct: BChE (from horse serum); from tissue; host or cells: horse serum
T4 sequence (P81908 whole entry): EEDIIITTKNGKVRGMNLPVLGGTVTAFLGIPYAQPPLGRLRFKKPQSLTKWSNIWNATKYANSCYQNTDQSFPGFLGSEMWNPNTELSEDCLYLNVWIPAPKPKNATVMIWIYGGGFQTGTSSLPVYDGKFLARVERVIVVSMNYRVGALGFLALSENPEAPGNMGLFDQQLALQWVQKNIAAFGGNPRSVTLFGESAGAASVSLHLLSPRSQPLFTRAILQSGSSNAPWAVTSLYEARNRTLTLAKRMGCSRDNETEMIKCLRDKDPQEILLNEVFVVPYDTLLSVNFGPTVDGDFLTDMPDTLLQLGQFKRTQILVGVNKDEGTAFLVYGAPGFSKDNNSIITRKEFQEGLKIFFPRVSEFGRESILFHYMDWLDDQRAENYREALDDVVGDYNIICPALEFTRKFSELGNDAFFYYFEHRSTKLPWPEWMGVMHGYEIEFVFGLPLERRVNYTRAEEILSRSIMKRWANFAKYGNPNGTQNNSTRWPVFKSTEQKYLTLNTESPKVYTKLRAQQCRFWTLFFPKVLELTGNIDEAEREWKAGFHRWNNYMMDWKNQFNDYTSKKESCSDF

[1] = Cheng–Prusoff from IC50, pH 8, mean of three measurements, read-out: Ki fXa
[2] = electric eel AChE, Cheng–Prusoff from IC50, read-out: Ki AchE
[3] = horse serum BChE, Cheng–Prusoff from IC50

T1 sequence (P00742 235-488 limits assumed): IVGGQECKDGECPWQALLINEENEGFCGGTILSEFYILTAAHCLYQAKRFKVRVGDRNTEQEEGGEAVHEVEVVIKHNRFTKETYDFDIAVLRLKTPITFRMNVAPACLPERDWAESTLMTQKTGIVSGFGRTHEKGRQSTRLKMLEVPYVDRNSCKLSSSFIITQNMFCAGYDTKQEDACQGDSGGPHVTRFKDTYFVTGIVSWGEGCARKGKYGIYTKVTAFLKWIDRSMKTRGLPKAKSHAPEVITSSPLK
T1 sequence (P00742 41-179 partner limits assumed): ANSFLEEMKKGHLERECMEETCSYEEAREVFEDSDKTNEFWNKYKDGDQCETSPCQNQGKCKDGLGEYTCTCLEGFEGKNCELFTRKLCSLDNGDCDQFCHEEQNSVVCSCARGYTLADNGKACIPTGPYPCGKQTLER

Row | SMILES | Ki (human fXa; [1]) | Ki (bovine thrombin) | Ki (α-chymotrypsin) | Ki (AChE (from electric eel); [2]) | Ki (BChE (from horse serum); [3]) | also measured
1 | N=C(N)c1ccc(NC(=O)CNC(=O)Cc2ccccc2)cc1 [Compound 4a] | > 50 µM | 39.4 µM |  |  |  | 
2 | N=C(N)c1cccc(NC(=O)CNC(=O)Cc2ccccc2)c1 [Compound 4b] | 25.6 µM | 24.1 µM |  |  |  | 
3 | N=C(N)c1cccc(NC(=O)CNC(=O)Cc2ccc(-c3ccc(F)cc3F)cc2)c1 [Compound 4c] | 1.01 µM | 10.7 µM | 35 µM |  |  | decrease of anti-fXa activity from malonamide 19h to glycinamide 4c (human fXa; ratio of Ki, relative to 19h): about 20 times
4 | N=C(N)c1ccc(NC(=O)CC(=O)NCc2ccccc2)cc1 [Compound 18a] | 23.2 µM | > 50 µM |  |  |  | 
5 | N=C(N)c1cccc(NC(=O)CC(=O)NCc2ccccc2)c1 [Compound 18b] | 12.3 µM | > 50 µM |  |  |  | 
6 | N=C(N)c1ccc(NC(=O)CC(=O)NCCc2ccccc2)cc1 [Compound 18c] | > 50 µM | > 50 µM |  |  |  | 
7 | N=C(N)c1ccc(NC(=O)CC(=O)NCCCc2ccccc2)cc1 [Compound 18d] | 39.8 µM | 25.5 µM |  |  |  | 
8 | N=C(N)c1ccc(NC(=O)CC(=O)NCCCCc2ccccc2)cc1 [Compound 18e] | 18.6 µM | 5.5 µM |  |  |  | 
9 | Cc1ccc(CNC(=O)CC(=O)Nc2ccc(C(=N)N)cc2)cc1 [Compound 19a] | 4.4 µM | 36.5 µM |  |  |  | 
10 | Cc1ccc(CNC(=O)CC(=O)Nc2cccc(C(=N)N)c2)cc1 [Compound 19b] | 4.2 µM | 36.6 µM |  |  |  | 
11 | N=C(N)c1ccc(NC(=O)CC(=O)NCc2ccc(-c3ccccc3)cc2)cc1 [Compound 19c] | > 50 µM | > 50 µM |  |  |  | 
12 | N=C(N)c1cccc(NC(=O)CC(=O)NCc2ccc(-c3ccccc3)cc2)c1 [Compound 19d] | 1.56 µM | > 50 µM | 4.3 µM | 9.33 µM |  | inhibition at 50 µM (BChE (from horse serum)): 28%
13 | N=C(N)c1cccc(NC(=O)CC(=O)NCc2ccc(-c3ccccc3F)cc2)c1 [Compound 19e] | 0.93 µM and 0.932 µM | 14.6 µM | > 50 µM |  | 7.7 µM | inhibition at 50 µM (AChE (from electric eel)): 35%
14 | N=C(N)c1cccc(NC(=O)CC(=O)NCc2ccc(-c3cccc(F)c3)cc2)c1 [Compound 19f] | 0.35 µM and 0.348 µM | 18.8 µM | 26.5 µM |  |  | Ki (AChE (from electric eel); read-out: Ki AchE): 8.11 µM; Ki (BChE (from horse serum)): 8.09 µM
15 | N=C(N)c1cccc(NC(=O)CC(=O)NCc2ccc(-c3ccc(F)cc3)cc2)c1 [Compound 19g] | 0.91 µM and 0.907 µM | 6.19 µM | > 50 µM | 4.48 µM |  | inhibition at 50 µM (BChE (from horse serum)): 37%
16 | N=C(N)c1cccc(NC(=O)CC(=O)NCc2ccc(-c3ccc(F)cc3F)cc2)c1 [Compound 19h] | 0.057 µM | 16.1 µM | > 50 µM | 2.44 µM | 1.52 µM | Ki (human fXa; read-out: Ki against fXa): 0.057 µM
17 | N=C(N)c1cccc(NC(=O)CC(=O)NCc2ccc(-c3cc(F)cc(F)c3)cc2)c1 [Compound 19i] | 0.264 µM | 26.7 µM | 30.2 µM |  | 8.02 µM | inhibition at 50 µM (AChE (from electric eel)): 5%
18 | CC(C)(C(=O)NCc1ccc(-c2ccc(F)cc2F)cc1)C(=O)Nc1cccc(C(=N)N)c1 [Compound 19l] | 0.214 µM | > 50 µM | > 50 µM |  | 1.55 µM | Ki (AChE (from electric eel)): 3.74 µM
19 | N=C(N)c1cccc(NC(=O)CC(=O)Nc2cccc(OCCc3ccc(F)cc3)c2)c1 [Compound 20a] | 0.413 µM | 12 µM | > 50 µM | 10 µM | 1.02 µM | 
20 | COc1ccc(CCOc2cccc(NC(=O)CC(=O)Nc3cccc(C(=N)N)c3)c2)cc1 [Compound 20b] | 0.205 µM | 6.66 µM | > 50 µM | 1.56 µM | 5.84 µM | 
21 | N=C(N)c1cccc(NC(=O)CC(=O)N2CCN(c3ccc(F)cc3)CC2)c1 [Compound 21a] | 0.423 µM | 31.4 µM | > 50 µM | 4.68 µM | 10 µM | 
22 | N=C(N)c1cccc(NC(=O)CC(=O)N2CCC(Oc3ccc(F)cc3)CC2)c1 [Compound 22a] | 0.35 µM | > 50 µM | > 50 µM | 1.88 µM |  | inhibition at 50 µM (BChE (from horse serum)): 22%
23 | N=C(N)c1cccc(NC(=O)CC(=O)N2CCC(Oc3ccc(F)cc3F)CC2)c1 [Compound 22b] | 0.089 µM | > 50 µM | > 50 µM | 2.31 µM |  | inhibition at 50 µM (BChE (from horse serum)): 25%
24 | N=C(N)c1cccc(NC(=O)CC(=O)N2CCC(Oc3ccc(F)c(F)c3)CC2)c1 [Compound 22c] | 0.12 µM | 27 µM | > 50 µM | 2.68 µM | 10.9 µM | 
25 | N=C(N)c1cccc(NC(=O)CC(=O)Nc2ccc(OC3CCNCC3)cc2)c1 [Compound 23a] | 0.59 µM | 42.4 µM | > 50 µM |  | 10 µM | inhibition at 50 µM (AChE (from electric eel)): 1%
26 | CC(C)N1CCC(Oc2ccc(NC(=O)CC(=O)Nc3cccc(C(=N)N)c3)cc2)CC1 [Compound 23b] | 2.3 µM | > 50 µM | > 50 µM | 1.3 µM | 0.65 µM | 
